Results from patent US10023570B2 (Array BioPharma, Inc., priority 2015, dated 2018).
Where a name gives a salt, the structure may show the parent alone.

Target: human KDR protein in HEK-293 cells (Homo sapiens (Human), UniProt P35968)
Experiment: KDR Cell Assay (phospho-KDR in HEK-293 cells expressing inducible KDR)
Format: cell-based
Details: pKDR Cell HEK 10% FBS IC50, HEK-293 cells expressing inducible KDR, VEGF stimulated
Method in brief: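 HEK-293 cells with inducible human KDR were treated with compound for 1 h in DMEM (0.25% DMSO final), then lysed. Phospho-KDR was quantified by Meso Scale immunoassay, expressed as percent of control, and IC50 taken where a 4-parameter logistic fit crossed 50 POC.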

Sequence of human KDR protein in HEK-293 cells (P35968 20-1356): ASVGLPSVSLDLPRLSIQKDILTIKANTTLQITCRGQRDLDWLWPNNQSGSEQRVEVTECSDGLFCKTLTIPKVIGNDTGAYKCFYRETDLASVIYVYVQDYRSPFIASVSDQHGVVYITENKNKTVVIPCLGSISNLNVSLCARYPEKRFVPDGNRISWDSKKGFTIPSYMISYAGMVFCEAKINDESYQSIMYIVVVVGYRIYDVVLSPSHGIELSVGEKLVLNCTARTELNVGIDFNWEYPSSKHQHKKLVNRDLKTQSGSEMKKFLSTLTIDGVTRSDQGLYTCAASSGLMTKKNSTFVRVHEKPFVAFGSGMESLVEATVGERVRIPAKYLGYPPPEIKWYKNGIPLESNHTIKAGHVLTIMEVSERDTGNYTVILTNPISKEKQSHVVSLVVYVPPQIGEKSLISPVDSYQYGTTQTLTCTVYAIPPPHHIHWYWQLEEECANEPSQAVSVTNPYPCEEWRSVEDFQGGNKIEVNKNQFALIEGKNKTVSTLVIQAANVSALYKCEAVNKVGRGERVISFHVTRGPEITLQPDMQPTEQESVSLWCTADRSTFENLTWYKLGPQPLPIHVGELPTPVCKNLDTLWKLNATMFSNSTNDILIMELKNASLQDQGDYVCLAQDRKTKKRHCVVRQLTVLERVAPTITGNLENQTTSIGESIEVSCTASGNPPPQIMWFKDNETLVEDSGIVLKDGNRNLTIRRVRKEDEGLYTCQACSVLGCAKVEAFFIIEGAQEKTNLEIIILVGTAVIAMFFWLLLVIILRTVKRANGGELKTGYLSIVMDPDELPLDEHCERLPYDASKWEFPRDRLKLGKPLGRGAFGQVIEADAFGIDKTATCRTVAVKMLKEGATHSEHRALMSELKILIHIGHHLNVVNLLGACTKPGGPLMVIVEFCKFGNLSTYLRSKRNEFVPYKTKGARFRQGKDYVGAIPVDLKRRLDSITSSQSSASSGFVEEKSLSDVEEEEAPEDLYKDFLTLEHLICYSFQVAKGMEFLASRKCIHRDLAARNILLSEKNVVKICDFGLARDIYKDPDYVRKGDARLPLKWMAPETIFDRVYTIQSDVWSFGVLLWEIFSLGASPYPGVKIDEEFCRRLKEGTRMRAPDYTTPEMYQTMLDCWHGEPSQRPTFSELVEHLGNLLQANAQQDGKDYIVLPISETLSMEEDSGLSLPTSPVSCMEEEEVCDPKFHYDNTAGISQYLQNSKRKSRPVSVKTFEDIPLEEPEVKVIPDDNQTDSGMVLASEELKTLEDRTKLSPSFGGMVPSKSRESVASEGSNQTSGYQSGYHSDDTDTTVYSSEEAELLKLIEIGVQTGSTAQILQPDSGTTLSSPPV

| SMILES | IC50 | IC50 (10% FBS) |
| --- | --- | --- |
| Cn1cc(-c2cc(-c3ccc(N4CCN(S(C)(=O)=O)CC4)nc3)c3c(C#N)cnn3c2)cn1 [Example 88, 6-(1-methyl-1H-pyrazol-4-yl)-4-(6-(4-(methylsulfonyl)piperazin-1-yl)pyridin-3-yl)pyrazolo[1,5-a]pyridine-3-carbonitrile] |  | 195 nM |
| CC(=O)N1CC2(CCN(c3ccc(-c4cc(-c5cnn(C)c5)cn5ncc(C#N)c45)cn3)CC2)C1 [Example 220, 4-(6-(2-acetyl-2,7-diazaspiro[3.5]nonan-7-yl)pyridin-3-yl)-6-(1-methyl-1H-pyrazol-4-yl)pyrazolo[1,5-a]pyridine-3-carbonitrile] |  | 617 nM |
| Cn1cc(-c2cc(-c3ccc(C4CCNCC4)cc3)c3c(C#N)cnn3c2)cn1 [Example 301, 6-(1-methyl-1H-pyrazol-4-yl)-4-(4-(piperidin-4-yl)phenyl)pyrazolo[1,5-a]pyridine-3-carbonitrile dihydrochloride] |  | 158 nM |
| Cn1cc(-c2cc(-c3ccc(N4CCN(C(=O)N5CCCC(F)(F)C5)CC4)nc3)c3c(C#N)cnn3c2)cn1 [Example 94, 4-(6-(4-(3,3-difluoropiperidine-1-carbonyl)piperazin-1-yl)pyridin-3-yl)-6-(1-methyl-1H-pyrazol-4-yl)pyrazolo[1,5-a]pyridine-3-carbonitrile] |  | 1700 nM |
| Cn1cc(-c2cc(-c3ccc(N4CCN(C(=O)N5CCC(C)(C)C5)CC4)nc3)c3c(C#N)cnn3c2)cn1 [Example 118, 4-(6-(4-(3,3-dimethylpyrrolidine-1-carbonyl)piperazin-1-yl)pyridin-3-yl)-6-(1-methyl-1H-pyrazol-4-yl)pyrazolo[1,5-a]pyridine-3-carbonitrile] |  | 606 nM |
| CO[C@H]1CCN(C(=O)N2CCN(c3ccc(-c4cc(-c5cnn(C)c5)cn5ncc(C#N)c45)cn3)CC2)C1 [Example 97, (S)-4-(6-(4-(3-methoxypyrrolidine-1-carbonyl)piperazin-1-yl)pyridin-3-yl)-6-(1-methyl-1H-pyrazol-4-yl)pyrazolo[1,5-a]pyridine-3-carbonitrile] |  | 751 nM |
| Cn1cc(-c2cc(-c3ccc(N4CC5CCC(C4)N5Cc4ccccc4)nc3)c3c(C#N)cnn3c2)cn1 [Example 484, 4-(6-(8-benzyl-3,8-diazabicyclo[3.2.1]octan-3-yl)pyridin-3-yl)-6-(1-methyl-1H-pyrazol-4-yl)pyrazolo[1,5-a]pyridine-3-carbonitrile] | 209 nM |  |
| COCC(=O)N1CCN(c2ccc(-c3cc(-c4cnn(C)c4)cn4ncc(C#N)c34)cc2)CC1 [Example 292, 4-(4-(4-(2-methoxyacetyl)piperazin-1-yl)phenyl)-6-(1-methyl-1H-pyrazol-4-yl)pyrazolo[1,5-a]pyridine-3-carbonitrile] |  | 1080 nM |
| CO[C@H]1C[C@H]2CC[C@@H](C1)N2c1ccc(-c2cc(-c3cnn(C)c3)cn3ncc(C#N)c23)cn1 [Example 200, 4-(6-((1R,3r,5S)-3-methoxy-8-azabicyclo[3.2.1]octan-8-yl)pyridin-3-yl)-6-(1-methyl-1H-pyrazol-4-yl)pyrazolo[1,5-a]pyridine-3-carbonitrile] |  | 463 nM |
| Cn1cc(-c2cc(-c3ccc(N4CCN(C(=O)C(C)(C)c5ccccc5)CC4)nc3)c3c(C#N)cnn3c2)cn1 [Example 26, 6-(1-methyl-1H-pyrazol-4-yl)-4-(6-(4-(2-methyl-2-phenylpropanoyl)piperazin-1-yl)pyridin-3-yl)pyrazolo[1,5-a]pyridine-3-carbonitrile] |  | 476 nM |
| Cn1cc(-c2cc(-c3ccc(N4CCN(C(=O)N5CCC[C@H]5C(F)(F)F)CC4)nc3)c3c(C#N)cnn3c2)cn1 [Example 113, (S)-6-(1-methyl-1H-pyrazol-4-yl)-4-(6-(4-(2-(trifluoromethyl)pyrrolidine-1-carbonyl)piperazin-1-yl)pyridin-3-yl)pyrazolo[1,5-a]pyridine-3-carbonitrile] |  | 654 nM |
| Cn1cc(-c2cc(-c3ccc(N4CCN(C(=O)Cc5ccn(C)n5)CC4)nc3)c3c(C#N)cnn3c2)cn1 [Example 42, 4-(6-(4-(2-(1-methyl-1H-pyrazol-3-yl)acetyl)piperazin-1-yl)pyridin-3-yl)-6-(1-methyl-1H-pyrazol-4-yl)pyrazolo[1,5-a]pyridine-3-carbonitrile 2,2,2-trifluoroacetate] |  | 502 nM |
| COC[C@@H]1CCCN1C(=O)N1CCN(c2ccc(-c3cc(-c4cnn(C)c4)cn4ncc(C#N)c34)cn2)CC1 [Example 111, (S)-4-(6-(4-(2-(methoxymethyl)pyrrolidine-1-carbonyl)piperazin-1-yl)pyridin-3-yl)-6-(1-methyl-1H-pyrazol-4-yl)pyrazolo[1,5-a]pyridine-3-carbonitrile] |  | 1960 nM |
| Cn1cc(-c2cc(-c3ccc(N4CCC5(CNC5)C4)nc3)c3c(C#N)cnn3c2)cn1 [Example 549, 4-(6-(2,6-diazaspiro[3.4]octan-6-yl)pyridin-3-yl)-6-(1-methyl-1H-pyrazol-4-yl)pyrazolo[1,5-a]pyridine-3-carbonitrile dihydrochloride] | 986 nM |  |
| Cn1cc(-c2cc(-c3ccc(N4CCN(C(=O)N5CCCC5)CC4)nc3)c3c(C#N)cnn3c2)cn1 [Example 125, 6-(1-methyl-1H-pyrazol-4-yl)-4-(6-(4-(pyrrolidine-1-carbonyl)piperazin-1-yl)pyridin-3-yl)pyrazolo[1,5-a]pyridine-3-carbonitrile] |  | 616 nM |
| Cn1cc(-c2cc(-c3ccc(N4CCN(C(=O)C[C@H](O)c5ccccc5)CC4)nc3)c3c(C#N)cnn3c2)cn1 [Example 8, (S)-4-(6-(4-(3-hydroxy-3-phenylpropanoyl)piperazin-1-yl)pyridin-3-yl)-6-(1-methyl-1H-pyrazol-4-yl)pyrazolo[1,5-a]pyridine-3-carbonitrile] |  | 98.9 nM |
| Cn1cc(-c2cc(-c3ccc(N4CCN(C(=O)CC5CCOCC5)CC4)nc3)c3c(C#N)cnn3c2)cn1 [Example 76, 6-(1-methyl-1H-pyrazol-4-yl)-4-(6-(4-(2-(tetrahydro-2H-pyran-4-yl)acetyl)piperazin-1-yl)pyridin-3-yl)pyrazolo[1,5-a]pyridine-3-carbonitrile] |  | 1010 nM |
| C[C@@H]([C@@H](O)c1ccccc1)N1CCN(c2ccc(-c3cc(-c4cnn(C)c4)cn4ncc(C#N)c34)cn2)CC1 [Example 149, 4-(6-(4-((1S,2S)-1-hydroxy-1-phenylpropan-2-yl)piperazin-1-yl)pyridin-3-yl)-6-(1-methyl-1H-pyrazol-4-yl)pyrazolo[1,5-a]pyridine-3-carbonitrile] |  | 563 nM |

More lines, now with the values ahead:

| IC50 | IC50 (10% FBS) | SMILES |
| --- | --- | --- |
| 791 nM |  | Cn1cc(-c2cc(-c3ccc(N4CCN(Cc5cncc(Cl)c5)CC4)nc3)c3c(C#N)cnn3c2)cn1 [Example 430, 4-(6-(4-((5-chloropyridin-3-yl)methyl)piperazin-1-yl)pyridin-3-yl)-6-(1-methyl-1H-pyrazol-4-yl)pyrazolo[1,5-a]pyridine-3-carbonitrile] |
| 173 nM |  | Cn1cc(-c2cc(-c3ccc(N4CCC5(CC4)CC(NC(=O)OC(C)(C)C)C5)nc3)c3c(C#N)cnn3c2)cn1 [Example 516, tert-butyl (7-(5-(3-cyano-6-(1-methyl-1H-pyrazol-4-yl)pyrazolo[1,5-a]pyridin-4-yl)pyridin-2-yl)-7-azaspiro[3.5]nonan-2-yl)carbamate] |
| 692 nM |  | Cc1cc(C)nc(CN2CCN(c3ccc(-c4cc(-c5cnn(C)c5)cn5ncc(C#N)c45)cn3)CC2)n1 [Example 401, 4-(6-(4-((4,6-dimethylpyrimidin-2-yl)methyl)piperazin-1-yl)pyridin-3-yl)-6-(1-methyl-1H-pyrazol-4-yl)pyrazolo[1,5-a]pyridine-3-carbonitrile] |
| 857 nM |  | CCC1CCN(C(=O)N2CCN(c3ccc(-c4cc(-c5cnn(C)c5)cn5ncc(C#N)c45)cn3)CC2)C1 (stereo not shown) [Example 389, 4-(6-(4-(3-ethylpyrrolidine-1-carbonyl)piperazin-1-yl)pyridin-3-yl)-6-(1-methyl-1H-pyrazol-4-yl)pyrazolo[1,5-a]pyridine-3-carbonitrile] |
| 639 nM |  | COc1ccc(N(C)C(=O)N2CCN(c3ccc(-c4cc(-c5cnn(C)c5)cn5ncc(C#N)c45)cn3)CC2)cc1 [Example 383, 4-(5-(3-cyano-6-(1-methyl-1H-pyrazol-4-yl)pyrazolo[1,5-a]pyridine-4-yl)pyridin-2-yl)-N-(4-methoxyphenyl)-N-methylpiperazine-1-carboxamide] |
|  | 880 nM | C[C@@H](CO)Cn1cc(-c2cc(-c3ccc(N4CCN(C(=O)CC(C)(C)C)CC4)cc3)c3c(C#N)cnn3c2)cn1 [Example 306, (R)-4-(4-(4-(3,3-dimethylbutanoyl)piperazin-1-yl)phenyl)-6-(1-(3-hydroxy-2-methylpropyl)-1H-pyrazol-4-yl)pyrazolo[1,5-a]pyridine-3-carbonitrile] |
| 462 nM |  | Cn1cc(-c2cc(-c3ccc(N4CCC5(CC4)CN(C(=O)OC4CCCC4)C5)nc3)c3c(C#N)cnn3c2)cn1 [Example 499, Cyclopentyl 7-(5-(3-cyano-6-(1-methyl-1H-pyrazol-4-yl)pyrazolo[1,5-a]pyridin-4-yl)pyridine-2-yl)-2,7-diazaspiro[3.5]nonane-2-carboxylate] |
| 802 nM |  | CN1CCCC12CCCN(c1ccc(-c3cc(-c4cnn(C)c4)cn4ncc(C#N)c34)cn1)C2 (stereo not shown) [Example 557, 4-(6-(1-methyl-1,7-diazaspiro[4.5]decan-7-yl)pyridin-3-yl)-6-(1-methyl-1H-pyrazol-4-yl)pyrazolo[1,5-a]pyridine-3-carbonitrile] |
| 129 nM |  | CN(C)c1ccc(CN2CCN(c3ccc(-c4cc(-c5cnn(C)c5)cn5ncc(C#N)c45)cn3)CC2)cc1 [Example 461, 4-(6-(4-(4-(dimethylamino)benzyl)piperazin-1-yl)pyridin-3-yl)-6-(1-methyl-1H-pyrazol-4-yl)pyrazolo[1,5-a]pyridine-3-carbonitrile] |
| 880 nM |  | Cn1cc(-c2cc(-c3ccc(N4CCN(Cc5cccc(F)c5)CC4)nc3)c3c(C#N)cnn3c2)cn1 [Example 428, 4-(6-(4-(3-fluorobenzyl)piperazin-1-yl)pyridin-3-yl)-6-(1-methyl-1H-pyrazol-4-yl)pyrazolo[1,5-a]pyridine-3-carbonitrile] |
